Reference: PubChem BioAssay (NCI)
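In this assay, cells in 96-well plates receive the compound at five concentrations for 48 hours. Endpoints are linearly interpolated between the surrounding concentrations. TGI is the concentration that stops growth completely.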

Legend:
Assay in all cases: NCI-60 cell line screen, 48 h
786-0 renal = test system: 786-0 renal
SF-268 CNS = test system: SF-268 CNS
NCI-H23 lung = test system: NCI-H23 lung
ACHN renal = test system: ACHN renal
SK-OV-3 ovarian = test system: SK-OV-3 ovarian
HS 578T breast = test system: HS 578T breast
HCT-116 colon = test system: HCT-116 colon
A549 NSCLC = test system: A549 NSCLC
EKVX NSCLC = test system: EKVX NSCLC
MALME-3M melanoma = test system: MALME-3M melanoma

## O=C(O[C@@H](/C=C/c1ccccc1)P1(=O)N(Cc2ccccc2)[C@@H]2CCCC[C@H]2N1Cc1ccccc1)c1ccccc1
786-0 renal
  TGI: > 100 µM
SF-268 CNS
  TGI: > 100 µM
NCI-H23 lung
  TGI: 9.22 µM
ACHN renal
  TGI: > 100 µM
SK-OV-3 ovarian
  TGI: > 100 µM
HS 578T breast
  TGI: > 100 µM
HCT-116 colon
  TGI: > 100 µM
A549 NSCLC
  TGI: > 100 µM
EKVX NSCLC
  TGI: > 100 µM
MALME-3M melanoma
  TGI: > 100 µM

## CC(=O)N=S(NC(=O)c1ccc(C)cc1)C(Cl)(Cl)Cl (stereo not given)
786-0 renal
  TGI: 33.1 µM
SF-268 CNS
  TGI: > 100 µM
NCI-H23 lung
  TGI: 68.2 µM
ACHN renal
  TGI: > 100 µM
SK-OV-3 ovarian
  TGI: > 100 µM
HS 578T breast
  TGI: > 100 µM
HCT-116 colon
  TGI: > 100 µM
A549 NSCLC
  TGI: > 100 µM
EKVX NSCLC
  TGI: > 100 µM
MALME-3M melanoma
  TGI: 96 µM

## C/C(=C\CO)CC[C@@H]1[C@@]2(C)CCCC(C)(C)[C@@H]2CC[C@@]1(C)O
786-0 renal
  TGI: 39.8 µM
SF-268 CNS
  TGI: 32.4 µM
NCI-H23 lung
  TGI: 40 µM
ACHN renal
  TGI: > 100 µM
SK-OV-3 ovarian
  TGI: 57.1 µM
HS 578T breast
  TGI: 56.4 µM
HCT-116 colon
  TGI: 43.5 µM
A549 NSCLC
  TGI: 92.7 µM
EKVX NSCLC
  TGI: 51.5 µM
MALME-3M melanoma
  TGI: 36.3 µM

## Cc1nc2ccccc2n1Cc1ccc(NC(=S)Nc2ccccc2)cc1
786-0 renal
  TGI: > 100 µM
SF-268 CNS
  TGI: > 100 µM
NCI-H23 lung
  TGI: > 100 µM
ACHN renal
  TGI: > 100 µM
SK-OV-3 ovarian
  TGI: > 100 µM
HS 578T breast
  TGI: > 100 µM
HCT-116 colon
  TGI: > 100 µM
A549 NSCLC
  TGI: > 100 µM
EKVX NSCLC
  TGI: > 100 µM
MALME-3M melanoma
  TGI: > 100 µM

## COc1ccc(C(=C2C(=O)OC(=O)C2=C(C)C)c2ccc(OC)cc2)cc1
786-0 renal
  TGI: > 100 µM
SF-268 CNS
  TGI: > 100 µM
NCI-H23 lung
  TGI: > 100 µM
ACHN renal
  TGI: > 100 µM
SK-OV-3 ovarian
  TGI: > 100 µM
HS 578T breast
  TGI: > 100 µM
HCT-116 colon
  TGI: > 100 µM
A549 NSCLC
  TGI: > 100 µM
EKVX NSCLC
  TGI: > 100 µM
MALME-3M melanoma
  TGI: > 100 µM

## OC(CCN1CCN(CCOC(c2ccc(F)cc2)c2ccc(F)cc2)CC1)c1ccc(Br)cc1 (stereo not given)
786-0 renal
  TGI: 7.07 µM
SF-268 CNS
  TGI: 17.6 µM
NCI-H23 lung
  TGI: 18.9 µM
ACHN renal
  TGI: 17 µM
SK-OV-3 ovarian
  TGI: 19.8 µM
HS 578T breast
  TGI: 23.4 µM
HCT-116 colon
  TGI: 7.84 µM
A549 NSCLC
  TGI: 24.1 µM
EKVX NSCLC
  TGI: 17.7 µM
MALME-3M melanoma
  TGI: 4.39 µM
